# Assay results as given in US20240279237A1, “FUSED BICYCLIC HETEROARYL COMPOUNDS USEFUL AS NLRP3 INHIBITORS” (Hoffmann-La Roche Inc., priority 2021, published 2024).
# pIC50: −log10 of the molar value.
# Target: T1, NLRP3 (Homo sapiens, UniProt Q96P20)
# T1 construct: Seed THP-1 cells (25,000 cells/well) containing 1.0 μg/ml LPS in 40 μl of RPMI medium; host or cells: THP-1 cells
# Assay: THP-1 Cells Pyroptosis Assay
# Assay type: cell-based
# Settings: THP-1 cells with 1.0 μg/ml LPS; compound 3 hours; nigericin 5 μM 1 hr; resazurin readout
# Summary of the method: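 THP-1 cells in serum-free RPMI primed with LPS (1 μg/ml FAC), incubated with compound 3 h at 37 °C, then nigericin (5 μM FAC) for 1 h. Supernatant removed after spin; viability read by resazurin (100 μM FAC) reduction after a further 1-2 h at 37 °C.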
# T1 sequence (Q96P20 whole entry): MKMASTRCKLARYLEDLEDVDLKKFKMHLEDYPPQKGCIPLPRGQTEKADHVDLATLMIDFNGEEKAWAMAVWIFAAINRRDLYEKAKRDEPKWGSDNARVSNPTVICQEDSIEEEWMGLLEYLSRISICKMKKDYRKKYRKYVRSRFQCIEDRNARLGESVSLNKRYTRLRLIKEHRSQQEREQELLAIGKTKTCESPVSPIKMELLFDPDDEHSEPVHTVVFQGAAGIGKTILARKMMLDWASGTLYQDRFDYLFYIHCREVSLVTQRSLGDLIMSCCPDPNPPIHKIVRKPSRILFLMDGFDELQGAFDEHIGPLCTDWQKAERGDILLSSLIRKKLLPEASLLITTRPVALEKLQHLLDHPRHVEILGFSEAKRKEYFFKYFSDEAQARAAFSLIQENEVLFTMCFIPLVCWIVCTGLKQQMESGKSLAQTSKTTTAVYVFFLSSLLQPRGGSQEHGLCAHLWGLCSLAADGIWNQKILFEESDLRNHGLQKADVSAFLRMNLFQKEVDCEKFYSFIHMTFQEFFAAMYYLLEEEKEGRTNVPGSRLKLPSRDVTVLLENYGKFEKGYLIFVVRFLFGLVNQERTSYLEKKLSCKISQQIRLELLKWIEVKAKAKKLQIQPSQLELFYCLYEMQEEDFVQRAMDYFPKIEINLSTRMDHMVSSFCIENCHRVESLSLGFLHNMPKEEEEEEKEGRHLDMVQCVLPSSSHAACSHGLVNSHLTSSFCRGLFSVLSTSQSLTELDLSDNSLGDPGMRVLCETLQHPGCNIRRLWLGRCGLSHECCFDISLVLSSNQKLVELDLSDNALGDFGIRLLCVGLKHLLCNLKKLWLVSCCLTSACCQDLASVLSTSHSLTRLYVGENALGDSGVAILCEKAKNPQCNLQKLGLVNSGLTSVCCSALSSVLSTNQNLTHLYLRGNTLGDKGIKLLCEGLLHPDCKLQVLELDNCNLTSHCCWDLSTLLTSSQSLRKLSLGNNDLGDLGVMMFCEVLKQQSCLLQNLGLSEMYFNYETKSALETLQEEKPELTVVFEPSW
row,Compound,pIC50
1,"Cc1cc(C(F)(F)F)cc(O)c1-c1cc(C(C)O)c2oc(N[C@@H]3CCCN(C)C3)nc2n1 (stereo partly drawn) [Example 106, 2-[7-(1-Hydroxyethyl)-2-[[(3R)-1-methyl-3-piperidyl]amino]oxazolo[4,5-b]pyridin-5-yl]-3-methyl-5-(trifluoromethyl)phenol]",7.66
2,"CCN1CCC[C@@H](Nc2nc3nc(-c4c(O)cc(C#N)cc4Cl)ccc3o2)C1 [Example 107, 3-Chloro-4-[2-[[(3R)-1-ethyl-3-piperidyl]amino]oxazolo[4,5-b]pyridin-5-yl]-5-hydroxy-benzonitrile;2,2,2-trifluoroacetic acid]",8.06
3,"Cc1cc(C#N)cc(O)c1-c1ccc2oc(N[C@@H]3CCC[C@H]3N(C)C)nc2n1 [Example 108, 4-[2-[[(1R,2R)-2-(Dimethylamino)cyclopentyl]amino]oxazolo[4,5-b]pyridin-5-yl]-3-hydroxy-5-methyl-benzonitrile]",7.77
4,"CCN1CCC[C@@H](Nc2nc3nc(-c4c(C)cc(C#N)cc4O)cnc3o2)C1 [Example 109, 4-[2-[[(3R)-1-Ethyl-3-piperidyl]amino]oxazolo[4,5-b]pyrazin-5-yl]-3-hydroxy-5-methyl-benzonitrile;2,2,2-trifluoroacetic acid]",8.85
5,"CCN1CCC[C@@H](Nc2nc3nc(-c4c(O)cc(C#N)cc4COC)ccc3o2)C1 [Example 110, 4-[2-[[(3R)-1-Ethyl-3-piperidyl]amino]oxazolo[4,5-b]pyridin-5-yl]-3-hydroxy-5-(methoxymethyl)benzonitrile;2,2,2-trifluoroacetic acid]",8.24
6,"CCN1CCC[C@@H](Nc2nc3nc(-c4c(C)cc(C#N)cc4O)cc(OC)c3o2)C1 [Example 111, 4-[2-[[(3R)-1-Ethyl-3-piperidyl]amino]-7-methoxy-oxazolo[4,5-b]pyridin-5-yl]-3-hydroxy-5-methyl-benzonitrile;2,2,2-trifluoroacetic acid]",8.66
7,"Cc1cc(Cl)cc(O)c1-c1ccc2oc(N[C@@H]3CCC[C@H]3N(C)C)nc2n1 [Example 112, 5-Chloro-2-[2-[[(1R,2R)-2-(dimethylamino)cyclopentyl]amino]oxazolo[4,5-b]pyridin-5-yl]-3-methyl-phenol]",8.18
8,"CCN1CCC[C@@H](Nc2nc3nc(-c4c(C)cc(Cl)cc4O)cnc3o2)C1 [Example 113, 5-Chloro-2-[2-[[(3R)-1-ethyl-3-piperidyl]amino]oxazolo[4,5-b]pyrazin-5-yl]-3-methyl-phenol;2,2,2-trifluoroacetic acid]",9.30
9,"Cc1cc(C#N)cc(O)c1-c1ccc2oc(NC3CCCN4C[C@@H](O)CC34)nc2n1 (stereo partly drawn) [Example 115, 3-Hydroxy-5-methyl-4-[2-[[(2S)-2-hydroxy-1,2,3,5,6,7,8,8a-octahydroindolizin-8-yl]amino]oxazolo[4,5-b]pyridin-5-yl]benzonitrile;2,2,2-trifluoroacetic acid]",7.31
10,"CCN1CCC[C@@H](Nc2nc3nc(-c4c(C)cc(C(F)(F)F)cc4O)cc(N(C)C)c3o2)C1 [Example 116, 2-[7-(Dimethylamino)-2-[[(3R)-1-ethyl-3-piperidyl]amino]oxazolo[4,5-b]pyridin-5-yl]-3-methyl-5-(trifluoromethyl)phenol]",8.16
11,"CCN1CCC[C@@H](Nc2nc3nc(-c4c(C)cc(C(F)(F)F)cc4O)cc(C#N)c3o2)C1 [Example 117, 2-[[(3R)-1-Ethyl-3-piperidyl]amino]-5-[2-hydroxy-6-methyl-4 (trifluoromethyl)phenyl]-oxazolo[4,5-b]pyridine-7-carbonitrile]",8.28
12,"CCN1CCC[C@@H](Nc2nc3nc(-c4c(O)cccc4C#N)ccc3o2)C1 [Example 119, 2-[2-[[(3R)-1-Ethyl-3-piperidyl]amino]oxazolo[4,5-b]pyridin-5-yl]-3-hydroxy-benzonitrile]",7.64
13,"Cc1cc(C(F)(F)F)cc(O)c1-c1ccc2oc(NC34CCC(CC3)N(C)C4)nc2n1 [Example 120, 3-Methyl-2-[2-[(2-methyl-2-azabicyclo[2.2.2]octan-4-yl)amino]oxazolo[4,5-b]pyridin-5-yl]-5-(trifluoromethyl)phenol]",6.97
14,"Cc1cc(C(F)F)cc(O)c1-c1ccc2oc(N[C@@H]3CCCN(C)C3)nc2n1 [Example 121, 5-(Difluoromethyl)-3-methyl-2-[2-[[(3R)-1-methyl-3-piperidyl]amino]oxazolo[4,5-b]pyridin-5-yl]phenol]",8.57
15,"CCN1CCC[C@@H](Nc2nc3nc(-c4c(C)cc(C(F)F)cc4O)ccc3o2)C1 [Example 122, 5-(Difluoromethyl)-2-[2-[[(3R)-1-ethyl-3-piperidyl]amino]oxazolo[4,5-b]pyridin-5-yl]-3-methyl-phenol;2,2,2-trifluoroacetic acid]",9.00
16,"CCN1CCC[C@@H](Nc2nc3nc(-c4c(C)cc(C)cc4O)ccc3o2)C1 [Example 123, 2-[2-[[(3R)-1-Ethyl-3-piperidyl]amino]oxazolo[4,5-b]pyridin-5-yl]-3,5-dimethyl-phenol]",9.15

row,Compound,pIC50
1,"CCN1CCC(O)C(Nc2nc3nc(-c4c(C)cc(Cl)cc4O)ccc3o2)C1 (stereo not shown) [Example 124, 3-[[5-(4-Chloro-2-hydroxy-6-methyl-phenyl)oxazolo[4,5-b]pyridin-2-yl]amino]-1-ethyl-piperidin-4-ol]",7.27
2,"CCN1CCC[C@@H](Nc2nc3nc(-c4c(C)cccc4O)ccc3o2)C1 [Example 125, 2-[2-[[(3R)-1-Ethyl-3-piperidyl]amino]oxazolo[4,5-b]pyridin-5-yl]-3-methyl-phenol]",8.52
3,"CN1CCC[C@@H](Nc2nc3nc(-c4c(O)cc(F)cc4C(F)(F)F)ccc3o2)C1 [Example 126, 5-Fluoro-2-[2-[[(3R)-1-methyl-3-piperidyl]amino]oxazolo[4,5-b]pyridin-5-yl]-3-(trifluoromethyl)phenol;2,2,2-trifluoroacetic acid]",8.41
4,"CCN1CCC[C@@H](Nc2nc3nc(-c4ccc(Cl)cc4O)c(Cl)cc3o2)C1 [Example 127, 5-Chloro-2-[6-Chloro-2-[[(3R)-1-ethyl-3-piperidyl]amino]oxazolo[4,5-b]pyridin-5-yl]phenol]",7.69
5,"Cc1cc(C)c(-c2ccc3oc(N[C@@H]4CCCN(C)C4)nc3n2)c(O)c1 [Example 128, 3,5-Dimethyl-2-[2-[[(3R)-1-methyl-3-piperidyl]amino]oxazolo[4,5-b]pyridin-5-yl]phenol;2,2,2-trifluoroacetic acid]",8.74
6,"CCN1CCC[C@@H](Nc2nc3nc(-c4c(O)cc(F)cc4Cl)ccc3o2)C1 [Example 129, 3-Chloro-2-[2-[[(3R)-1-ethyl-3-piperidyl]amino]oxazolo[4,5-b]pyridin-5-yl]-5-fluoro-phenol;2,2,2-trifluoroacetic acid]",8.77
7,"CCN1CCC[C@@H](Nc2nc3nc(-c4c(C)cc(OC(F)F)cc4O)ccc3o2)C1 [Example 130, 5-(Difluoromethoxy)-2-[2-[[(3R)-1-ethyl-3-piperidyl]amino]oxazolo[4,5-b]pyridin-5-yl]-3-methyl-phenol;2,2,2-trifluoroacetic acid]",8.72
8,"CCN1CCC(Nc2nc3nc(-c4c(C)cc(C(F)(F)F)cc4O)ccc3o2)C1 (stereo not shown) [Example 131, 2-[2-[(1-Ethylpyrrolidin-3-yl)amino]oxazolo[4,5-b]pyridin-5-yl]-3-methyl-5-(trifluoromethyl)phenol]",8.02
9,"CCN1CCC[C@@H](Nc2nc3nc(-c4c(O)cc(Cl)cc4Cl)ccc3o2)C1 [Example 132, 3,5-Dichloro-2-[2-[[(3R)-1-ethyl-3-piperidyl]amino]oxazolo[4,5-b]pyridin-5-yl]phenol;2,2,2-trifluoroacetic acid]",9.15
10,"CCN1CCC[C@@H](Nc2nc3nc(-c4ccc(C(F)(F)F)cc4O)c(F)cc3[nH]2)C1 [Example 133, 2-[2-[[(3R)-1-Ethyl-3-piperidyl]amino]-6-fluoro-1H-imidazo[4,5-b]pyridin-5-yl]-5-(trifluoromethyl)phenol]",7.10
11,"CCN1C[C@@H](O)C[C@@H](Nc2nc3nc(-c4c(C)cc(Cl)cc4O)ccc3o2)C1 [Example 134, (3S,5R)-5-[[5-(4-Chloro-2-hydroxy-6-methyl-phenyl)oxazolo[4,5-b]pyridin-2-yl]amino]-1-ethyl-piperidin-3-ol]",8.72
12,"CNC1(c2nc3nc(-c4c(C)cc(C(F)(F)F)cc4O)ccc3o2)CCOCC1 [Example 135, 3-Methyl-2-[2-[4-(methylamino)tetrahydropyran-4-yl]oxazolo[4,5-b]pyridin-5-yl]-5-(trifluoromethyl)phenol;2,2,2-trifluoroacetic acid]",6.30
13,"CCN1CCC[C@@H](Nc2nc3ccc(-c4c(C)cc(Cl)cc4O)nc3[nH]2)C1 [Example 136, 5-Chloro-2-[2-[[(3R)-1-ethyl-3-piperidyl]amino]-3H-imidazo[4,5-b]pyridin-5-yl]-3-methyl-phenol]",9.00
14,"CCN1CCC[C@@H](Nc2nc3nc(-c4c(C)cc(OC(F)(F)F)cc4O)ccc3o2)C1 [Example 137, 2-[2-[[(3R)-1-Ethyl-3-piperidyl]amino]oxazolo[4,5-b]pyridin-5-yl]-3-methyl-5-(trifluoromethoxy)phenol;2,2,2-trifluoroacetic acid]",8.32
15,"CCN1CCCC(c2nc3nc(-c4c(C)cc(C(F)(F)F)cc4O)ccc3o2)C1 (stereo not shown) [Example 138, 2-[2-(1-Ethyl-3-piperidyl)oxazolo[4,5-b]pyridin-5-yl]-3-methyl-5-(trifluoromethyl)phenol]",6.63
